{"source": "patent US20230157996A1", "about": "“SMALL-MOLECULE INHIBITOR TARGETING EB VIRUS NUCLEAR ANTIGEN PROTEIN, PREPARATION METHOD AND USE THEREOF” (priority 2020, published 2023)", "data": [{"tested_on": "C666-1 cells", "assay": "C666-1 cell viability single concentration (50 μM) inhibition rate (Resazurin)", "format": "cell-based", "conditions": "50 μM compound, 72 hours, C666-1 cells", "outline": "(§1)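 EBV-positive C666-1 cells (5×10^3/well), pre-cultured 24 h, were exposed to compound at 50 μmol/L final for 72 h at 37° C, 5% CO2, in duplicate. Viability by resazurin (3 h, ex 560/em 590 nm); inhibition rate computed relative to DMSO control and medium-only blank.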", "values": [{"smiles": "O=C(O)c1cccc(N2CC(Oc3ccc([N+](=O)[O-])cc3)C2)c1-n1cccc1", "note": "[Example 301, 3-(3-(4-nitrophenoxy)azetidin-1-yl)-2-(1H-pyrrol-1-yl)benzoic acid]", "C666-1 cell viability single concentration (50 μM) inhibition rate, Ratio* (Inh %)": "++++ (>50% ++++)"}]}, {"tested_on": "C666-1 cells", "assay": "C666-1 cell viability single concentration (50 μM) inhibition rate (Resazurin)", "format": "cell-based", "conditions": "Homo sapiens, C6661, 72 h, 50 μM compound, 72 hours, C666-1 cells; read-out: C666-1 cell viability single concentration (50 μM) inhibition rate, Ratio* (Inh %)", "outline": "as §1", "units": {"inhibition at 50 µM": "%"}, "values": [{"smiles": "COC(=O)c1cccc(N2CC(Oc3ccc(CNS(=O)(=O)c4ccc(C)cc4)cc3)C2)c1-n1cccc1", "note": "[Example 283, Methyl 3-(3-(4-(((4-methylphenyl)sulfonamido)methyl)phenoxy)azetidin-1-yl)-2-(1H-pyrrol-1-yl)benzoate]", "inhibition at 50 µM": "> 50"}, {"smiles": "COC(=O)c1cccc(N2CC(Oc3cc(F)nc(F)c3)C2)c1-n1cccc1", "note": "[Example 284, Methyl 3-(3-((2,6-difluoropyridin-4-yl)oxy)azetidin-1-yl)-2-(1H-pyrrol-1-yl)benzoate]", "inhibition at 50 µM": "< 10"}, {"smiles": "O=C(O)c1cccc(N2CC(Oc3cc(F)nc(F)c3)C2)c1-n1cccc1", "note": "[Example 285, 3-(3-((2,6-difluoropyridin-4-yl)oxy)azetidin-1-yl)-2-(1H-pyrrol-1-yl)benzoic acid]", "inhibition at 50 µM": "< 10"}, {"smiles": "COC(=O)c1cccc(N2CC(Oc3ccc([N+](=O)[O-])cc3)C2)c1-n1cccc1", "note": "[Example 286, Methyl 3-(3-(4-nitrophenoxy)azetidin-1-yl)-2-(1H-pyrrol-1-yl)benzoate]", "inhibition at 50 µM": "10 to 30"}, {"smiles": "COC(=O)c1cccc(N2CC(Oc3cccc(-c4csc(NS(C)(=O)=O)n4)c3)C2)c1-n1cccc1", "note": "[Example 288, Methyl 3-(3-(3-(2-(methylsulfonamido)thiazol-4-yl)phenoxy)azetidin-1-yl)-2-(1H-pyrrol-1-yl)benzoate]", "inhibition at 50 µM": "< 10"}, {"smiles": "COc1ccccc1NC(=O)Nc1ccc(OC2CN(c3cccc(C(=O)O)c3-n3cccc3)C2)cc1", "note": "[Example 289, 3-(3-(4-(3-(2-methoxyphenyl)ureido)phenoxy)azetidin-1-yl)2-(1H-pyrrol-1-yl)benzoic acid]", "inhibition at 50 µM": "10 to 30"}, {"smiles": "COC(=O)c1cccc(N2CC(Oc3ccc(Oc4ccc(C(F)(F)F)cc4)cc3)C2)c1-n1cccc1", "note": "[Example 291, Methyl 3-(3-(4-(4-(trifluoromethyl)phenoxy)phenoxy)azetidin-1-yl)2-(1H-pyrrol-1-yl)benzoate]", "inhibition at 50 µM": "< 10"}, {"smiles": "COC(=O)c1cccc(N2CC(Oc3ccc(Oc4cccc(C(C)=O)c4)cc3)C2)c1-n1cccc1", "note": "[Example 293, Methyl 3-(3-(4-(3-acetylphenoxy)phenoxy)azetidin-1-yl)-2-(1H-pyrrol-1-yl)benzoate]", "inhibition at 50 µM": "10 to 30"}, {"smiles": "CC(=O)c1cccc(Oc2ccc(OC3CN(c4cccc(C(=O)O)c4-n4cccc4)C3)cc2)c1", "note": "[Example 294, 3-(3-(4-(3-acetylphenoxy)phenoxy)azetidin-1-yl)-2-(1H-pyrrol-1-yl)benzoic acid]", "inhibition at 50 µM": "< 10"}, {"smiles": "COC(=O)c1cccc(N2CC(Oc3cccc(NC(=O)Nc4ccc(OC(F)(F)F)cc4)c3)C2)c1-n1cccc1", "note": "[Example 295, Methyl 3-(3-(3-(3-(4-(trifluoromethoxy)phenyl)ureido)phenoxy)azetidin-1-yl)-2-(1H-pyrrol-1-yl)benzoate]", "inhibition at 50 µM": "> 50"}, {"smiles": "O=C(Nc1ccc(OC(F)(F)F)cc1)Nc1cccc(OC2CN(c3cccc(C(=O)O)c3-n3cccc3)C2)c1", "note": "[Example 296, 3-(3-(3-(3-(4-(trifluoromethoxy)phenyl)ureido)phenoxy)azetidin-1-yl)-2-(1H-pyrrol-1-yl)benzoic acid]", "inhibition at 50 µM": "< 10"}, {"smiles": "COC(=O)c1cccc(N2CC(Oc3cccc(CO)c3)C2)c1-n1cccc1", "note": "[Example 297, Methyl 3-(3-(3-(hydroxymethyl)phenoxy)azetidin-1-yl)-2-(1H-pyrrol-1-yl)benzoate]", "inhibition at 50 µM": "30 to 50"}, {"smiles": "O=C(O)c1cccc(N2CC(Oc3cccc(CO)c3)C2)c1-n1cccc1", "note": "[Example 298, 3-(3-(3-(hydroxymethyl)phenoxy)azetidin-1-yl)-2-(1H-pyrrol-1-yl)benzoic acid]", "inhibition at 50 µM": "< 10"}, {"smiles": "COC(=O)c1cccc(N2CC(Oc3ccc(CO)cc3C)C2)c1-n1cccc1", "note": "[Example 299, Methyl 3-(3-(4-(hydroxymethyl)-2-methylphenoxy)azetidin-1-yl)-2-(1H-pyrrol-1-yl)benzoate]", "inhibition at 50 µM": "> 50"}, {"smiles": "Cc1cc(CO)ccc1OC1CN(c2cccc(C(=O)O)c2-n2cccc2)C1", "note": "[Example 300, 3-(3-(4-(hydroxymethyl)-2-methylphenoxy)azetidin-1-yl)-2-(1H-pyrrol-1-yl)benzoic acid]", "inhibition at 50 µM": "< 10"}, {"smiles": "CCNC(=O)c1ccc(OC2CN(c3cccc(C(=O)OC)c3-n3cccc3)C2)cc1", "note": "[Example 303, Methyl 3-(3-(4-(ethylcarbamoyl)phenoxy)azetidin-1-yl)-2-(1H-pyrrol-1-yl)benzoate]", "inhibition at 50 µM": "10 to 30"}, {"smiles": "COC(=O)c1cccc(N2CC(Oc3ccc4c(ccn4S(=O)(=O)c4ccc(C)cc4)c3)C2)c1-n1cccc1", "note": "[Example 304, Methyl 3-(3-((1-p-tolylsulfonyl-1H-indol-5-yl)oxy)azetidin-1-yl)-2-(1H-pyrrol-1-yl)benzoate]", "inhibition at 50 µM": "< 10"}, {"smiles": "Cc1ccc(S(=O)(=O)n2ccc3cc(OC4CN(c5cccc(C(=O)O)c5-n5cccc5)C4)ccc32)cc1", "note": "[Example 305, 3-(3-((1-p-tolylsulfonyl-1H-indol-5-yl)oxy)azetidin-1-yl)-2-(1H-pyrrol-1-yl)benzoic acid]", "inhibition at 50 µM": "< 10"}, {"smiles": "COCCOc1ccc(OC2CN(c3cccc(C(=O)OC)c3-n3cccc3)C2)cc1OCCOC", "note": "[Example 306, Methyl 3-(3-(3,4-bis(2-methoxyethoxy)phenoxy)azetidin-1-yl)-2-(1H-pyrrol-1-yl)benzoate]", "inhibition at 50 µM": "< 10"}, {"smiles": "COCCOc1ccc(OC2CN(c3cccc(C(=O)O)c3-n3cccc3)C2)cc1OCCOC", "note": "[Example 307, 3-(3-(3,4-bis(2-methoxyethoxy)phenoxy)azetidin-1-yl)-2-(1H-pyrrol-1-yl)benzoic acid]", "inhibition at 50 µM": "< 10"}, {"smiles": "COC(=O)c1cccc(N2CC(Oc3ccc(OC4CCCCO4)cc3)C2)c1-n1cccc1", "note": "(centres unmarked) [Example 308, Methyl 3-(3-(4-((tetrahydro-2H-pyran-2-yl)oxy)phenoxy)azetidin-1-yl)-2-(1H-pyrrol-1-yl)benzoate]", "inhibition at 50 µM": "< 10"}, {"smiles": "CNCCOc1ccc(OC2CN(c3cccc(C(=O)OC)c3-n3cccc3)C2)cc1", "note": "[Example 309, Methyl 3-(3-(4-(2-(methylamino)ethoxy)phenoxy)azetidin-1-yl)-2-(1H-pyrrol-1-yl)benzoate]", "inhibition at 50 µM": "10 to 30"}, {"smiles": "COC(=O)c1cccc(N2CC(Oc3ccc(OCCN)cc3)C2)c1-n1cccc1", "note": "[Example 310, Methyl 3-(3-(4-(2-aminoethoxy)phenoxy)azetidin-1-yl)-2-(1H-pyrrol-1-yl)benzoate]", "inhibition at 50 µM": "< 10"}, {"smiles": "COC(=O)c1cccc(N2CC(Oc3ccc(OCCN)c(OC)c3)C2)c1-n1cccc1", "note": "[Example 311, Methyl 3-(3-(4-(2-aminoethoxy)-3-methoxyphenoxy)azetidin-1-yl)-2-(1H-pyrrol-1-yl)benzoate]", "inhibition at 50 µM": "10 to 30"}, {"smiles": "COC(=O)c1cccc(N2CC(Oc3ccc(OCCNC(C)=O)cc3)C2)c1-n1cccc1", "note": "[Example 312, Methyl 3-(3-(4-(2-acetylaminoethoxy)phenoxy)azetidin-1-yl)-2-(1H-pyrrol-1-yl)benzoate]", "inhibition at 50 µM": "30 to 50"}, {"smiles": "CC(=O)NCCOc1ccc(OC2CN(c3cccc(C(=O)O)c3-n3cccc3)C2)cc1", "note": "[Example 313, 3-(3-(4-(2-acetylaminoethoxy)phenoxy)azetidin-1-yl)-2-(1H-pyrrol-1-yl)benzoic acid]", "inhibition at 50 µM": "< 10"}, {"smiles": "COC(=O)c1cccc(C#CN(Cc2ccco2)S(=O)(=O)c2ccc(C)cc2)c1-n1cccc1", "note": "[Example 314, Methyl 3-(((N-(furan-2-yl-methyl)-4-methylphenyl)sulfonamido)ethynyl)-2-(1H-pyrrol-1-yl)benzoate]", "inhibition at 50 µM": "< 10"}, {"smiles": "COC(=O)c1cccc(C#CN(Cc2ccc3c(ccn3C)c2)S(=O)(=O)c2ccc(C)cc2)c1-n1cccc1", "note": "[Example 316, Methyl 3-(((4-methyl-N-((1-methyl-1H-indol-5-yl)methyl)phenyl)sulfonamido)ethynyl)-2-(1H-pyrrol-1-yl)benzoate]", "inhibition at 50 µM": "< 10"}, {"smiles": "COC(=O)c1cccc(C#CN(CC2CCN(C)CC2)S(=O)(=O)c2ccc(C)cc2)c1-n1cccc1", "note": "[Example 318, Methyl 3-(((4-methyl-N-((1-methylpiperidin-4-yl)methyl)phenyl)sulfonamido)ethynyl)-2-(1H-pyrrol-1-yl)benzoate]", "inhibition at 50 µM": "> 50"}, {"smiles": "COC(=O)c1cccc(C#CN(Cc2ccccc2)S(=O)(=O)c2csc3ccccc23)c1-n1cccc1", "note": "[Example 320, Methyl 3-((N-benzylbenzo[b]thiophen-3-sulfonamido)ethynyl)-2-(1H-pyrrol-1-yl)benzoate]", "inhibition at 50 µM": "< 10"}]}, {"tested_on": "C666-1 cells", "assay": "C666-1 cell viability single concentration (50 μM) inhibition rate (Resazurin)", "format": "cell-based", "conditions": "Homo sapiens, C6661, 72 h, read-out: C666-1 cell viability single concentration (50 μM) inhibition rate, Ratio* (Inh %)", "outline": "as §1", "units": {"inhibition at 50 µM": "%"}, "values": [{"smiles": "Cc1ccc(S(=O)(=O)N(C#Cc2cccc(C(=O)O)c2-n2cccc2)Cc2ccco2)cc1", "note": "[Example 315, Lithium 3-(((N-(furan-2-yl-methyl)-4-methylphenyl)sulfonamido)ethynyl)-2-(1H-pyrrol-1-yl)benzoate]", "inhibition at 50 µM": "> 50"}, {"smiles": "Cc1ccc(S(=O)(=O)N(C#Cc2cccc(C(=O)O)c2-n2cccc2)Cc2ccc3c(ccn3C)c2)cc1", "note": "[Example 317, Lithium 3-(((4-methyl-N-((1-methyl-1H-indol-5-yl)methyl)phenyl)sulfonamido)ethynyl)-2-(1H-pyrrol-1-yl)benzoate]", "inhibition at 50 µM": "10 to 30"}, {"smiles": "Cc1ccc(S(=O)(=O)N(C#Cc2cccc(C(=O)O)c2-n2cccc2)CC2CCN(C)CC2)cc1", "note": "[Example 319, Lithium 3-(((4-methyl-N-((1-methylpiperidin-4-yl)methyl)phenyl)sulfonamido)ethynyl)-2-(1H-pyrrol-1-yl)benzoate]", "inhibition at 50 µM": "> 50"}, {"smiles": "O=C(O)c1cccc(C#CN(Cc2ccccc2)S(=O)(=O)c2csc3ccccc23)c1-n1cccc1", "note": "[Example 321, Lithium 3-((N-benzylbenzo[b]thiophen-3-sulfonamido)ethynyl)-2-(1H-pyrrol-1-yl)benzoate]", "inhibition at 50 µM": "< 10"}]}]}
